Experimental data from patent US20240245704A1, “PHARMACEUTICAL COMPOSITION AND USE OF MULTI-KINASE INHIBITOR” (TRANSTHERA SCIENCES (NANJING), INC., priority 2021, published 2024).

Tested on: human triple negative breast cancer BC408 subcutaneous xenograft tumor model
Experiment: In vivo pharmacodynamic study on triple negative breast cancer patient-derived xenograft (PDX) subcutaneous tumor model
Parameters: species or system nude mice
Details: for TGI: TGI=1-T/C from relative tumor volumes
Protocol: The tumor masses were inoculated into the right back of the mice, the animals were weighed before administration, and tumor volumes were measured. Grouping was designed in blocks according to the tumor volume, with 8 mice per group except for the vehicle control, which contained 6 mice.
Administration was carried out as in Table 3 below.
Animals were monitored daily for health status and mortality, body weight and tumor volume were measured twice a week, and samples were collected after the last administration. […] T/C % is the relative tumor proliferation rate, i.e., the percentage of the relative tumor volume in the treatment and control groups at a given time point. T and C are relative tumor volumes (RTVs) of the treatment and control groups at a given time point, respectively. The calculation formula is as follows: T/C %=TRTV/CRTV×100% (TRTV: mean RTV for treatment group; CRTV: mean RTV for vehicle control group; RTV=Vt/V0, wherein V0 is the tumor volume of the animal at the time of grouping, and Vt is the tumor volume of the animal after treatment).

[1] = BC408 PDX in female nude mice, compound 29 15 mg/kg oral Qd*5 days/week, paclitaxel injection 25 mg/kg intraperitoneal Qw, 5 weeks

Cc1[nH]nc2c1N=C(c1ccccc1Cl)c1cnc(N3CCOCC3)cc1N2 [Compound 29]
Tumor volume [1]: 666 mm^3 | TGI [1]: 72% | Inhibitory effect on the triple negative breast cancer PDX subcutaneous tumor model (in words) (BC408 PDX, doses as in Table 3): significant inhibitory effect

CC(=O)O[C@H]1C(=O)[C@@]2(C)[C@H]([C@H](OC(=O)c3ccccc3)[C@]3(O)C[C@H](OC(=O)[C@H](O)[C@@H](NC(=O)c4ccccc4)c4ccccc4)C(C)=C1C3(C)C)[C@]1(OC(C)=O)CO[C@@H]1C[C@@H]2O [Paclitaxel, paclitaxel, reference compound]
TGI [1]: 58%
